The values below come from patent US5939403A, “Keratan sulfate oligosaccharide fraction and pharmaceutical containing the same” (Seikagaku Corporation, priority 1994, dated 1999).

Test [1] has as its system neutrophile of guinea pig. Description: Inhibition of active oxygen (O2^-) generation in FMLP-stimulated neutrophile. Type of test: cell-based, female Hartley guinea pigs. As to the method:
To female Hartley guinea pigs of five weeks old (purchased from Japan SLC), 20 ml of the 0.2% aqueous solution of glycogen (Type II; Oyster; Sigma) dissolved in saline which was previously sterilized with autoclave, was intraperitoneally administered. The guinea pigs were sacrificed by bleeding 16 hours after the administration, and 20 ml of the saline containing heparin at a concentration of 10 U/ml was intraperitoneally injected to recover the peritoneal exudate. Hereinafter all the operations were carried out under ice-water cooling condition except for incubation. The recovered exudate was centrifuged at 1,000 rpm for 10 minutes, the precipitate obtained was hemolyzed with purified water for 30 seconds, and returned into isotonicity with the Hanks' solution at double the concentration (not containing phenol red; Nissui Seiyaku), and further it was centrifuged at 1,000 rpm for 10 minutes. The precipitate obtained was suspended in the Hanks' solution and centrifuged and the operations were repeated once more to give the neutrophile.
The collected neutrophile of the guinea pigs was suspended in the Hanks' solution, the number of leukocyte in the suspension was determined by a cytometer (System K-2000; Toa Iyo Denshi Co.), and the suspension diluted with the Hanks' solution to 2×10^6 cells/ml was used in the determination as the cell suspension. After mixing 1 ml of the cell suspension and 10 μl of the purified keratan sulfate oligosaccharide (keratan sulfate tetrasaccharide (I), the keratan sulfate pentasaccharide (II), or the keratan sulfate disaccharide (III)) prepared in Example 1 described above, and the mixture was preincubated at 37° C. for an hour. […]
The supernatant obtained by the centrifugation was separated and the absorbance thereof was determined at 550 nm to estimate the quantity of reducing cytochrome c per 2×10^6 cells after the 10 minutes incubation. The quantity of reducing cytochrome c increases with the generation of active oxygen (O2^-). […]

For test [2], the system named is mesenteric lymph node and submandibular lymph node. Description: Cell differentiation induction: staining concentration of lymph node sections (HE staining). Format: in vivo, MRL-lpr/lpr mice. To be noted: four weeks. The procedure: The PBS solution of the purified keratan sulfate disaccharide (III) which was prepared in Example 1 described above at a dose of 1 mg/kg, 5 mg/kg, or 25 mg/kg weight (hereinafter referred to as the 1 mg/kg administered group, the 5 mg/kg administered group, and the 25 mg/kg administered group, respectively), and PBS as the control (hereinafter sometimes referred to as the control group) was intramuscularly injected, respectively, to the femoral region of MRL-lpr/lpr mice seven times a week for four weeks. After that, the mice were subjected to anatomization to prepare the section specimens (HE staining) of mesenteric lymph node and submandibular lymph node. The staining concentrations per unit area of the specimens were analyzed by an image analyzer (PIAS). In the undifferentiated cells, the staining concentration per unit area is low because proportion of the cytoplasm is high and the nuclei is stained thinly. In the differentiated cells, the staining concentration per unit area is high because proportion of the nuclei is high and it is stained thickly.
The results of the analysis of mesenteric lymph nodes and submandibular lymph nodes are shown in FIG. 17 and FIG. 18 with the standard errors, respectively. In the figures, ** represents that it has the significant difference with p<0.01 (wherein "p" means a level of significance by the Bonferroni multiple comparative test). […]

In the next test the test system is submandibular lymph node. Kind of test: Observation of apoptic body in submandibular lymph node sections (HE staining). To be noted: any dose (1, 5, 25 mg/kg i.m.), four weeks. Type of test: in vivo, MRL-lpr/lpr mice.
The subject of another test is papain-induced arthritis. Kind of test: Papain-induced bilateral arthritis model, intramuscular administration (volume of synovial fluid). Type of test: in vivo, Japanese white rabbits (female). To be noted: 0.5 mg/kg intramuscular. As to the method: The anti-inflammatory effect of the keratan sulfate oligosaccharide with rabbits of the papain-induced arthritis model was examined using the volume of synovial fluid as an indication.
Into the articular cavity of both knee joint of Japanese white rabbits (female) of 3 kg weight, 150 μl of the saline solution of papain (1%) was injected to prepare the arthritis model. […]
Seven days after the injection, the blood was drawn from the auricular artery, and plasma containing heparin was separated. […] The calcium concentrations in the plasma and the recovered synovial fluid were determined, and the volume of synovial fluid was calculated from the following formula. […]
The arthritis model was prepared by the method described in (1-1), and one day after injecting papain, 150 μl of the PBS solution of the purified keratan sulfate tetrasaccharide (I) (1% solution; 0.5 mg/kg weight) which was prepared in Example 1 was injected into the hip muscle of the left side (hereinafter referred to as "the keratan sulfate tetrasaccharide (I) administered group"). […] Seven days after the injection, the volume of synovial fluid was calculated in the same manner as in (1-1).

The structures appear in SMILES notation. Structures can show the parent of a compound that is named as a salt.

Regarding `CC(=O)N[C@H]1C(O)O[C@H](COS(=O)(=O)O)[C@@H](O[C@@H]2O[C@H](COS(=O)(=O)O)[C@H](O)[C@H](O)[C@H]2O)[C@@H]1O` (stereo partly drawn) [keratan sulfate disaccharide (III), Gal(6S)β1-4GlcNAc(6S)], in test [1], the “inhibitory function for generation of active oxygen (O2^-) (FIG. 10)” value is “slightly observed”. In addition, the “staining concentration per unit area (FIG. 17, FIG. 18)” value in test [2] (5 mg/kg and 25 mg/kg i.m., p<0.01) was “the staining concentrations increased significantly compared with the control group”; in test [2] (any dose (1, 5, 25 mg/kg i.m.)), “an increase in the staining concentration per unit area (decrease in relative lightness) was observed”. Further, the “existence of the apoptic body” value in the test with submandibular lymph node is “the scattering of the apoptic body was observed”.
Regarding `CC(=O)N[C@H]1[C@H](O[C@H]2[C@@H](O)[C@@H](COS(=O)(=O)O)O[C@@H](O[C@H]3[C@H](O)[C@@H](NC(C)=O)C(O)O[C@@H]3COS(=O)(=O)O)[C@@H]2O)O[C@H](COS(=O)(=O)O)[C@@H](O[C@@H]2O[C@H](COS(=O)(=O)O)[C@H](O)[C@H](O)[C@H]2O)[C@@H]1O` (stereo partly drawn) [keratan sulfate tetrasaccharide (I), Gal(6S)β1-4GlcNAc(6S)β1-3Gal(6S)β1-4GlcNAc(6S)], in the test on papain-induced arthritis (bilateral model), the “volume of synovial fluid (result in words)” value was “significantly less than that in the control group”. The “Volume of Synovial Fluid” value in the test on papain-induced arthritis (7 days, n = 12, SD 65.8, p < 0.01, control 729, normal 437) amounted to 561 µL. The “inhibition of generation of active oxygen (O2^-) (FIG. 10)” value in test [1] (0.01, 0.1 and 1.0 mg/ml) is recorded as “remarkably inhibits the generation of active oxygen (O2^-) depending upon the concentration”.
